Twelve compounds from ChEMBL document CHEMBL5465560, “Selectivity Literature for EUbOPEN Chemogenomic Library” (2024) can be followed below.

The structures appear in SMILES notation.

Assay [1] has as its target Tyrosine-protein kinase Lyn (Homo sapiens, UniProt P07948). Kind of assay: Selectivity interaction (Kinase panel (Z-LYTE Assay)) EUB0001632a LYN. Particulars: at 10 µM.
In assay [2] the target is Serine/threonine-protein kinase 25 (Homo sapiens) (UniProt O00506). Kind of assay: Selectivity interaction (ActivX KiNativ screen (ex vivo kinase selectivity in human PBMCs)) EUB0001619a STK25. The assay is classed as cell-based. Particulars: PBMC, at 1 µM.
Chain of Serine/threonine-protein kinase 25 (Homo sapiens) (O00506 whole entry, looked up, canonical isoform): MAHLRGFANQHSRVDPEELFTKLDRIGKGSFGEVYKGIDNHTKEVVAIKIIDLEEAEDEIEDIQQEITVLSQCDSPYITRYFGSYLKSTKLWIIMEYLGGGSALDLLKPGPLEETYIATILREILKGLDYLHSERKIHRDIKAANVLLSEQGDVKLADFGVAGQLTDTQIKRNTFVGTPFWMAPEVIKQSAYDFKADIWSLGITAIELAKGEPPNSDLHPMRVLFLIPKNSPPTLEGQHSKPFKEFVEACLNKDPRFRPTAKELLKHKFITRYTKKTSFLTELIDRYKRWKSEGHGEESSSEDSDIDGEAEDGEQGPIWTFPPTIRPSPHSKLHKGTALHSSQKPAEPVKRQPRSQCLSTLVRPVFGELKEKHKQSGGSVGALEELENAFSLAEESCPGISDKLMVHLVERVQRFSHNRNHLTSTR
Assay [3] addresses Casein kinase I isoform epsilon (Homo sapiens, UniProt P49674). To be noted: at 10 µM.
The target in assay [4] is T1, Serine/threonine-protein kinase D3 (Homo sapiens) (UniProt O94806).
T1 sequence (whole entry): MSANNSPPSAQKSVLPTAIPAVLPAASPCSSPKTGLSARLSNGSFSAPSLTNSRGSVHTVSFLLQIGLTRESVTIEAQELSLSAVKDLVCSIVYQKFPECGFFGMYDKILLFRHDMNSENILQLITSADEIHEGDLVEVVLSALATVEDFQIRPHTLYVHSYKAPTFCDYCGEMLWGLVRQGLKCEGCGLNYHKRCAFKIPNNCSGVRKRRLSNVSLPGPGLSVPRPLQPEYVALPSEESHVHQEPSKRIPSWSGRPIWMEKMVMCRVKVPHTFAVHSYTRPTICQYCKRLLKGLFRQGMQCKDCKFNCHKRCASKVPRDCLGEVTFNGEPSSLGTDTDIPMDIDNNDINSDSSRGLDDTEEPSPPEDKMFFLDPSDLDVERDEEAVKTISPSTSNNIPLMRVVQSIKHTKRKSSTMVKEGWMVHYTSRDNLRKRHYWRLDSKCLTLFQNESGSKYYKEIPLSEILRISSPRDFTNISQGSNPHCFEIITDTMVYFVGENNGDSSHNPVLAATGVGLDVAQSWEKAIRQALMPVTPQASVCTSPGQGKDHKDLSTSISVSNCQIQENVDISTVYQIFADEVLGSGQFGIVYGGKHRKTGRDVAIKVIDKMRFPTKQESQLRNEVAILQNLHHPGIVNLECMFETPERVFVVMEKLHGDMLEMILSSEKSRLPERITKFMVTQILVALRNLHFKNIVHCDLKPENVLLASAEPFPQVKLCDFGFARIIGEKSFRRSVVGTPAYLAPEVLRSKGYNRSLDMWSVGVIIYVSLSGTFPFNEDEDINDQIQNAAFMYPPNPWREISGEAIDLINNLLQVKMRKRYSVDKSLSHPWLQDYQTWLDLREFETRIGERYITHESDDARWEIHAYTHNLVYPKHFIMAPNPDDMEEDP
The experiment in a line: Selectivity interaction (KinomeScan (DiscoverX)) EUB0000695a PRKD3. Particulars: at 100 nM.

Assay [5] deals with Activin receptor type-2A (Homo sapiens) (UniProt P27037). The experiment in a line: Selectivity interaction (KinomeScan (DiscoverX)) EUB0000607a ACVR2A. Particulars: at 10 µM.
Chain of Activin receptor type-2A (Homo sapiens) (P27037 whole entry): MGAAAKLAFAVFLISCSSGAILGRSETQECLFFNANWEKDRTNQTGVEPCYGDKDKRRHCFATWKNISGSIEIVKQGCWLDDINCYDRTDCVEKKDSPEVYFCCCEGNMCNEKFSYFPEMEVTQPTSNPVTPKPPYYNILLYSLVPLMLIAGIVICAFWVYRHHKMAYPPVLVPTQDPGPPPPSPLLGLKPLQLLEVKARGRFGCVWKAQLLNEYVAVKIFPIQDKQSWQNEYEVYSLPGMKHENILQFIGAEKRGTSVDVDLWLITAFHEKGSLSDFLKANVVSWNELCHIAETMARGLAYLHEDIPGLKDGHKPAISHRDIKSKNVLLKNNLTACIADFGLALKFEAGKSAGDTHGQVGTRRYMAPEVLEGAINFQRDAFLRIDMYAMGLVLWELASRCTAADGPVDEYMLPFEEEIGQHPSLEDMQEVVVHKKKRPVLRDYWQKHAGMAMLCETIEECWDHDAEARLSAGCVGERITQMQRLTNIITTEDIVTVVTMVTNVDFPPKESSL
The target in assay [6] is Interferon-induced, double-stranded RNA-activated protein kinase (Homo sapiens) (UniProt P19525). Particulars: at 10 µM.
Chain of Interferon-induced, double-stranded RNA-activated protein kinase (Homo sapiens) (P19525 whole entry): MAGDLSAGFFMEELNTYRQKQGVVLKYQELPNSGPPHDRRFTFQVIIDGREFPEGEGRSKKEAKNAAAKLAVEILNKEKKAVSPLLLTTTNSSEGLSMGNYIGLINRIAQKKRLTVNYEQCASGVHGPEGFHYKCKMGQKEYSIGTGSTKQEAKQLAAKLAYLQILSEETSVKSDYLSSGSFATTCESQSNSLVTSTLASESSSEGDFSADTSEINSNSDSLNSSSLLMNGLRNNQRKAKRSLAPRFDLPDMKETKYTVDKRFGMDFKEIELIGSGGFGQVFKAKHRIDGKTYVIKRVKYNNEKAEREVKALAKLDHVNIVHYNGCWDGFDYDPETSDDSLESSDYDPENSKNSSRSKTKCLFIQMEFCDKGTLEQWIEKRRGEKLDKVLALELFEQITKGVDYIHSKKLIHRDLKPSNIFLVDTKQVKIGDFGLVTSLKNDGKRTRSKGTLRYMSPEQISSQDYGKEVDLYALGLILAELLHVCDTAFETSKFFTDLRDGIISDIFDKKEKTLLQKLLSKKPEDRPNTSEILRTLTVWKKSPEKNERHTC
Assay [7] addresses Insulin receptor (Homo sapiens, UniProt P06213). The experiment in a line: Selectivity interaction (ActivX KiNativ screen (kinase selectivity in THP-1 cell lysates)) EUB0000639a INSR. In kind it is subcellular. Particulars: lysate.
Assay [8] addresses T2, Peregrin (Homo sapiens) (UniProt P55201).
T2 sequence (whole entry): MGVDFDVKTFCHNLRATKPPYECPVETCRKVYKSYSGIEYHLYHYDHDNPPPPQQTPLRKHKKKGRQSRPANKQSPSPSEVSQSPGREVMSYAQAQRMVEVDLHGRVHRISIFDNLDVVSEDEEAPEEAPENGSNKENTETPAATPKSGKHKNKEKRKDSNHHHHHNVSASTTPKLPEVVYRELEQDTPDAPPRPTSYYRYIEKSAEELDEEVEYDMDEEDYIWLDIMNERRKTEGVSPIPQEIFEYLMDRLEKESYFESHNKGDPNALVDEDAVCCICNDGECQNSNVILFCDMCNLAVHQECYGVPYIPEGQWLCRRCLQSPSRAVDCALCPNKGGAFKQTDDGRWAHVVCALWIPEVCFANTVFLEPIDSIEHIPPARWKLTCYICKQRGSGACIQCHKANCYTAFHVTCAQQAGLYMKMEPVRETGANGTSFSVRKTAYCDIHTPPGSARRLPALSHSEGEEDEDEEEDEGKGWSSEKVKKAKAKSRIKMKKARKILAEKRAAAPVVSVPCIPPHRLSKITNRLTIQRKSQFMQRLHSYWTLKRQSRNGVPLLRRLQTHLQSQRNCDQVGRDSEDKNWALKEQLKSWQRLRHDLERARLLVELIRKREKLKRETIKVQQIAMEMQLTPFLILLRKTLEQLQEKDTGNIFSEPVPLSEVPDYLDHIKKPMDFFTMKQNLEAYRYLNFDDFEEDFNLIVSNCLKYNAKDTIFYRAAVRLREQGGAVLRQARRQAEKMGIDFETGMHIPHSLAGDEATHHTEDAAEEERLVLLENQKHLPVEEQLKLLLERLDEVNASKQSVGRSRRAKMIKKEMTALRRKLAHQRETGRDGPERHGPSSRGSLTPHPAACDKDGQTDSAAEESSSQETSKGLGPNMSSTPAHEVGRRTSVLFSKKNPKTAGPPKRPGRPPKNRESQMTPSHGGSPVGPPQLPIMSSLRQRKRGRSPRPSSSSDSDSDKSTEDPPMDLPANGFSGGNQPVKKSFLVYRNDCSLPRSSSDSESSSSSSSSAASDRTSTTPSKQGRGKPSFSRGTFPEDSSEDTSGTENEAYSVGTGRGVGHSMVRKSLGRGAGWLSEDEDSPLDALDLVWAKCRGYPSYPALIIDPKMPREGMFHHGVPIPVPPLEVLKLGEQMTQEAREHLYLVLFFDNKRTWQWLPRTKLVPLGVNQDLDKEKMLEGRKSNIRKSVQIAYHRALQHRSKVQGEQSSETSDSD
The experiment in a line: Selectivity interaction (PWWP, WD40, and Tudor domain panel (DSLS measurements, literature)) EUB0000270b BRPF1.

Assay [9] deals with Tyrosine-protein kinase receptor Tie-1 (Homo sapiens) (UniProt P35590). The experiment in a line: Selectivity interaction (KinomeScan (DiscoverX)) EUB0000092b TIE1. To be noted: at 10 µM.
For assay [10], the target named is Histamine H2 receptor (Homo sapiens) (UniProt P25021). Kind of assay: Selectivity interaction (Panel of non-epigenetic targets (kinases, GPCRs, ion channels, and transporters, Eurofins) ) EUB0000271b HRH2. To be noted: at 1 µM.
Chain of Histamine H2 receptor (Homo sapiens) (P25021 whole entry): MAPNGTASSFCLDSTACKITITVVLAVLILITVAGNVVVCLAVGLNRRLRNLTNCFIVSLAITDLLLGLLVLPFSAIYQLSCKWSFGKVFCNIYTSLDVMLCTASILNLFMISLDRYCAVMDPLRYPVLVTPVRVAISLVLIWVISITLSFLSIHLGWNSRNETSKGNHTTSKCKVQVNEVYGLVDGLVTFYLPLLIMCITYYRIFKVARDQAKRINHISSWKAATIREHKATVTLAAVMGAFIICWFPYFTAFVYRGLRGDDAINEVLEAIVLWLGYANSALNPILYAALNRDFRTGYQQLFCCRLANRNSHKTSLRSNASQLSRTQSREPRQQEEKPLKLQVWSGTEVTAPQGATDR
The target of assay [11] is BDNF/NT-3 growth factors receptor (Homo sapiens) (UniProt Q16620). The experiment in a line: Selectivity interaction (Millipore kinase profiler) EUB0000124b NTRK2. Particulars: at 10 µM.
Chain of BDNF/NT-3 growth factors receptor (Homo sapiens) (Q16620 32-822 limits assumed): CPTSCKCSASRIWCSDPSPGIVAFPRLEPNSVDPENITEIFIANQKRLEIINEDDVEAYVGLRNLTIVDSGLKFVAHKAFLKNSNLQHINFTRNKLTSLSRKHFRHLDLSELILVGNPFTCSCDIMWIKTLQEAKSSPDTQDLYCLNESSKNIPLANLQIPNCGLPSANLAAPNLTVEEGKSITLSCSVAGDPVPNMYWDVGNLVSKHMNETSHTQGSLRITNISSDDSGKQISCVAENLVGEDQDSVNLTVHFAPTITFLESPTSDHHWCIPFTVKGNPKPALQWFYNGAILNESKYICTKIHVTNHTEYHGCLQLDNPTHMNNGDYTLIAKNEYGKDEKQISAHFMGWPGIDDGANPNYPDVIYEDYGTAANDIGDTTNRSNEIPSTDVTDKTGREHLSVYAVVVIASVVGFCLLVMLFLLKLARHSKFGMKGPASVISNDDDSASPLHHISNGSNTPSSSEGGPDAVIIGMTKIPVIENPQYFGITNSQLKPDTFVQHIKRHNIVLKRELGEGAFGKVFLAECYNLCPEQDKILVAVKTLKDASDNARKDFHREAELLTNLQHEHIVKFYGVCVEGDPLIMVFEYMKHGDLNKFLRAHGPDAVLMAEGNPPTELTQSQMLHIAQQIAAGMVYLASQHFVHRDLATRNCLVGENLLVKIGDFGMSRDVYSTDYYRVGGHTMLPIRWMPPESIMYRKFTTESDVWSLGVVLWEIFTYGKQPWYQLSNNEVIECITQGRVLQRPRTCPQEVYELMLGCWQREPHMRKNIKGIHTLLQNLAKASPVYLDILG
Assay [12] relates to Tyrosine-protein kinase ABL1 (Homo sapiens), P00519 [H396P]. The experiment in a line: Selectivity interaction (KinomeScan (DiscoverX)) EUB0000229b ABL1. To be noted: at 1 µM.
The target of assay [13] is Myosin light chain kinase, smooth muscle (Homo sapiens, UniProt Q15746). The experiment in a line: Selectivity interaction (KinomeScan (DiscoverX)) EUB0000229b MYLK. Particulars: at 10 µM.

Chain of Insulin receptor (P06213 28-758 limits assumed): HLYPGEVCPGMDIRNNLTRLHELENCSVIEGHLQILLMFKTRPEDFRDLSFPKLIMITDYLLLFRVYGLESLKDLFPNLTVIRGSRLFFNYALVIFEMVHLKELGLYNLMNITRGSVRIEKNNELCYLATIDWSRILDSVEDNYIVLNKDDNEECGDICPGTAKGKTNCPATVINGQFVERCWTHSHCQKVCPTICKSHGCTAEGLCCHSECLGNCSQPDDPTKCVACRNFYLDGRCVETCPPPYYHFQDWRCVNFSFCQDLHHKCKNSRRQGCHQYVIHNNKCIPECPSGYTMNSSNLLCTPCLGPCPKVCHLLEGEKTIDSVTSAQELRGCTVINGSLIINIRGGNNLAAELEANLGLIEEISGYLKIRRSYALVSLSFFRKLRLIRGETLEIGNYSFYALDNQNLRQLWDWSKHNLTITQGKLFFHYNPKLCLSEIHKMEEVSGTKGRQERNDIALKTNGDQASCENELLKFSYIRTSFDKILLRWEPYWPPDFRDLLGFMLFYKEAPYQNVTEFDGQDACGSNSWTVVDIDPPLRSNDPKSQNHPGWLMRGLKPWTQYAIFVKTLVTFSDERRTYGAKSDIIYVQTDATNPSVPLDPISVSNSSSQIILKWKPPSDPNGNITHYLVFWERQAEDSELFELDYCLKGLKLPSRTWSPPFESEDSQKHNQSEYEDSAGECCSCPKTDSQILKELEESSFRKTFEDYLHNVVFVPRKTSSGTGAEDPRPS
Chain of Insulin receptor (P06213 763-1382 limits assumed): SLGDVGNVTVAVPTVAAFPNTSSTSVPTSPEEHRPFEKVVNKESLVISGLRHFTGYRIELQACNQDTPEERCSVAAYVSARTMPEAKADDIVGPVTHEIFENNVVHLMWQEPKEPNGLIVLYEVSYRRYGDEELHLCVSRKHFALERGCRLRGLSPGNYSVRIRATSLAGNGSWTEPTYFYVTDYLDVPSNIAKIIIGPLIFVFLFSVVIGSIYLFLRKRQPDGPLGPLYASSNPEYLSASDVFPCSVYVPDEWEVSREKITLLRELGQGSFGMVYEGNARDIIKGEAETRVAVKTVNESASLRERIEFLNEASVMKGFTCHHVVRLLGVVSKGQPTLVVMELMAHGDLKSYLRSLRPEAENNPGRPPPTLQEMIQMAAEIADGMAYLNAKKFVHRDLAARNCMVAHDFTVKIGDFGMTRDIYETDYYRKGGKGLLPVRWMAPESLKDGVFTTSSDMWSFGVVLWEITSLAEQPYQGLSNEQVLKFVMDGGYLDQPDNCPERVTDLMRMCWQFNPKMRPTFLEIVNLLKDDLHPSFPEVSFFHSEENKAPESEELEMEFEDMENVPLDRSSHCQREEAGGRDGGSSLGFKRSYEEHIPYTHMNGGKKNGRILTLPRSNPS
Chain of Tyrosine-protein kinase Lyn (P07948 2-512 limits assumed): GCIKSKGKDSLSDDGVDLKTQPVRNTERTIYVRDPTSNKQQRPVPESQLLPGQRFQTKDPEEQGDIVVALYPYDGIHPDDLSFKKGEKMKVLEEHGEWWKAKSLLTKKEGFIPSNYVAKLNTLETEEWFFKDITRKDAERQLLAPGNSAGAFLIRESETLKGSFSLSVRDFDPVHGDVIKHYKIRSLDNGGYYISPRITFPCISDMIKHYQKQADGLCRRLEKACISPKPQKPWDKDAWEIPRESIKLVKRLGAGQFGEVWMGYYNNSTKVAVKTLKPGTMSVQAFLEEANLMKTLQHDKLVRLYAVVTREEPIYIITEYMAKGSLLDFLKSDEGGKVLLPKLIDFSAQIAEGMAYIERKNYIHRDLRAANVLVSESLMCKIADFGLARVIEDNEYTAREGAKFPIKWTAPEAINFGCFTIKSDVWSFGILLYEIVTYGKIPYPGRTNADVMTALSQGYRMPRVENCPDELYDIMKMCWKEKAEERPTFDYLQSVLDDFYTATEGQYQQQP
Chain of Casein kinase I isoform epsilon (P49674 whole entry, looked up, canonical isoform): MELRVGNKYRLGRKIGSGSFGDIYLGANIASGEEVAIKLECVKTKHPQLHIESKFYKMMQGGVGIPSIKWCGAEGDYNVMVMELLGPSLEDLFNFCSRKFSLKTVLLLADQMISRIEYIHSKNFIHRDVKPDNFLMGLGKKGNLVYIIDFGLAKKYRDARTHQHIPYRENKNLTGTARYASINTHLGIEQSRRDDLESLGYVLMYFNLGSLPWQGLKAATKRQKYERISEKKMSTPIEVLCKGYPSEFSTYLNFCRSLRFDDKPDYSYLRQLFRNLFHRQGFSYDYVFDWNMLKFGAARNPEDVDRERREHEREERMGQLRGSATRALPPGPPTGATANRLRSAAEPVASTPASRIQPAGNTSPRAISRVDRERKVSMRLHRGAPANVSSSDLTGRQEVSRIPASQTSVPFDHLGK

Turning to `Cn1cc(-n2cnc3c(NCc4nc5cc(Cl)c(Cl)cc5[nH]4)nc(N4CCOCC4)nc32)cn1`, in assay [1], the % of control worked out at 8.19%.

For `N#Cc1cccc(-c2c[nH]c3ncnc(N4CCOCC4)c23)c1`, the % of inhibition in assay [2] came out at 39%.

Compound `CCN(CC)CCCCNc1ncc2cc(-c3cc(OC)cc(OC)c3)c(NC(=O)NC(C)(C)C)nc2n1` showed a % of control in [3] of 100%.

In [4], `Cc1cc(F)c(C(=O)Nc2cccc(-c3nncn3C(C)C)n2)cc1-n1cnc(C2CC2)c1` displayed a % of control of 78%.

`CNC(=O)Nc1ccc(-c2nc(N3CC4CCC(C3)O4)c3cnn(C4CCC5(CC4)OCCO5)c3n2)cc1` showed a % of control in [5] of 78%.

Turning to `Cc1cc([C@@H](C)Nc2ccccc2C(=O)O)c2nc(N3CCOCC3)cc(=O)n2c1` [AZD-6482], in assay [6], the % of control worked out at 99%.

Regarding `CC[C@@H]1[C@H](F)C(=O)N[C@@H]1COc1nccc2cc(C(N)=O)c(OC)cc12` [ZIMLOVISERTIB], the % of inhibition is -44.7% in assay [7] (at 0.01 µM); 10.7% in [7] (at 0.04 µM); -15.5% in [7] (at 0.2 µM); -21.5% in [7] (at 1 µM); -37.4% in assay [7] (at 5 µM).

In [8], `Cc1cc(CN)cc(C)c1-c1ncn(C)c1-c1cncn1C` registered a dTagg of 0 K.

Take `CCC(=O)N1CCN(c2ccc(-n3c(=O)ccc4cnc5ccc(-c6cnc7ccccc7c6)cc5c43)cc2C(F)(F)F)CC1`: in assay [9], the % of control is 100%.

As to `Cc1cc(C)cc([C@@H]2c3cc(C)ccc3NC(=O)CN2C(=O)c2ccc(Br)s2)c1`, in assay [10], the % of inhibition is -18%.

In assay [11], `CC(=O)Nc1cccc(-n2c(=O)n(C3CC3)c(=O)c3c(Nc4ccc(I)cc4F)n(C)c(=O)c(C)c32)c1` displayed a % of control of 120%.

Regarding `COc1cc(N(C)c2ccnc3ccc(C(F)(F)F)cc23)cc(OC)c1OC`, the % binding in [12] turned out to be 78%; in assay [13] it was 92%.
